Experimental data taken from US6846817B2 (Regents of the University of Minnesota, priority 1999, dated 2005).
Structures can show the parent of a compound that is named as a salt. Where two headings read alike, the source gives them in different places. Each block holds one compound with its values, some of them ahead of it.

Columns and labels:
α4β2 nicotine receptor = α4β2 nicotine receptor (Rattus norvegicus, UniProt P09483+P12390); test: Test A: [3H]cytisine binding
dopamine D2 receptors = dopamine D2 receptors (Homo sapiens, UniProt P14416); test: Binding to dopamine D2 receptors
dopamine transporter = dopamine transporter (Homo sapiens, UniProt Q01959); test: Binding to dopamine transporter sites
serotonin transporter = serotonin transporter (Homo sapiens, UniProt P31645); test: Binding to serotonin transporter sites
[1] = tested on: nicotinic acetylcholine receptor (nAChR); test: Test C: 86Rb+ efflux from rat cortical synaptosomes; format: cell-based
striatal synaptosomes = test: Test D: striatal [3H]dopamine release; format: cell-based, rat
hippocampal synaptosomes = test: Test E: [3H]ACh release; format: cell-based, rat
Procedure: Drug-induced release of [^3H]ACh from hippocampal synaptosomes was measured as described by Sullivan et al. (1997). (J. Pharmacol. Exptl. Ther. 283: 235-246). The F4 synaptosomal fraction was washed with Kreb's buffer containing 118.5 mM NaCl, 25 mM NaHCO3, 1.2 mM KCl, 1.2 mM KH2PO4, 2.5 mM CaCl2, 2.5 mM MgCl2, 10 mM glucose gassed with 95% O2/5% CO2 to pH 7.4 and re-suspended at 1 mg protein/mL. The synaptosomes were loaded with [^3H]choline by incubation with 0.8 μM [^3H]choline (2 Ci/mmol). Aliquots of the incubation mixture were then loaded into the perfusion chamber of a Brandell harvester and perfused with Kreb's buffer (37° C.) at a flow rate of 0.25 mL/min. Three-minute fractions were collected and measured for radioactivity. Drugs for study were administered as 20-s pulses. The [^3H]ACh release evoked by study compounds was normalized to (−)-nicotine-evoked release and to the total radioactivity accumulated by synaptosomes. Evoked release of [^3H]ACh from rat hippocampal synaptosomes was measured as the area under the peak above base release. The EC50 value is determined by nonlinear least squares regression analysis.

[2] = tested on: ovariectomized female rats; test: Test F: object recognition memory test; format: in vivo, rat
[3] = target: α4β2 nicotinic acetylcholine receptor subtype (Rattus norvegicus, UniProt P09483+P12390); settings: cited from earlier work
[4] = target: neuronal [3H]-cytisine binding site (Homo sapiens, UniProt P17787+P43681); settings: read-out: Ki, neuronal [3H]-cytisine binding site; cited from earlier work
nerve-injured mice = test: Test G: Chung model of neuropathic pain, inhibition of tactile sensitivity; format: in vivo, mouse
Procedure: After hemostasis is confirmed, the wound is sutured with 3-0 silk thread and the skin closed with sterile wound clips. The animals are fully mobile within thirty minutes of cessation of anesthetic. As a control, in a separate group of animals, a sham surgery identical to the above (but without nerve ligation) is performed. Nociception is evaluated by responsiveness to multiple applications (10 per hindpaw) of a single vF filament to the plantar surface of each hind paw. When the stimulus is of sufficient force, the mouse will lick, withdraw and/or shake the paw; this action represents the behavioral endpoint. In nerve-injured mice, a vF filament (#3.61) exerting 3.3 mN of force elicited 66±1.3% responsiveness on the paw ipsilateral to the injury.
Inhibition of Tactile Sensitivity. Varying doses of the compounds are administered to test for inhibition of tactile sensitivity. Percent inhibition is determined relative to the mean number of paw withdrawals (PW) elicited by force and according to the following equation: [formula] Each mouse serves as its own control.
Three groups of animals were used for this experiment. Animals in each group received an intrathecal injection of physiological saline to assess the control response. […] The responses were assessed as described above.

Male Wistar rats = settings: rat, in vivo
α7 subtype = α7 subtype (Homo sapiens, UniProt P36544); settings: read-out: Ki at the α7 subtype; cited from earlier work
[5] = tested on: nicotinic acetylcholine receptor as PC12 cells; settings: cited from earlier work
[6] = target: human muscle nicotinic acetylcholine receptor subtype (Homo sapiens, UniProt P02708+P07510+P11230+Q07001); settings: cited from earlier work
[7] = rat brain, compounds tested in racemic form, read-out: Ki-[3H]Cytisine

serotonin transporter, sequence (P31645 whole entry): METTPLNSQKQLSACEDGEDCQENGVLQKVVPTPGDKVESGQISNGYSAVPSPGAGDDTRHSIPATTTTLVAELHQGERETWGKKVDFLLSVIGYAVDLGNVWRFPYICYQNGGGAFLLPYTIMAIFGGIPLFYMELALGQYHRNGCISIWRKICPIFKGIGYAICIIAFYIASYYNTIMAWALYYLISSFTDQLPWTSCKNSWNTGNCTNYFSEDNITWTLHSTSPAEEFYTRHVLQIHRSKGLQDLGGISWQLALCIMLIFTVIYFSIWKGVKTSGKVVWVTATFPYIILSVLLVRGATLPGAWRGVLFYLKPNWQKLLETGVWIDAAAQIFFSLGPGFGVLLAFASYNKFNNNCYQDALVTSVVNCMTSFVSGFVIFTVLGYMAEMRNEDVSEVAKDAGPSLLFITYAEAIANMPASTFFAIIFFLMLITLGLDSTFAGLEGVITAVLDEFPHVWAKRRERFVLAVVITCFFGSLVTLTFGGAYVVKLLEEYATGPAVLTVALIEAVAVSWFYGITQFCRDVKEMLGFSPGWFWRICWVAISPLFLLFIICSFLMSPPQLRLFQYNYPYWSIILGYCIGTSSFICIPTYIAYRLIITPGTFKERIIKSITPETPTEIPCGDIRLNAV
dopamine transporter, sequence (Q01959 whole entry): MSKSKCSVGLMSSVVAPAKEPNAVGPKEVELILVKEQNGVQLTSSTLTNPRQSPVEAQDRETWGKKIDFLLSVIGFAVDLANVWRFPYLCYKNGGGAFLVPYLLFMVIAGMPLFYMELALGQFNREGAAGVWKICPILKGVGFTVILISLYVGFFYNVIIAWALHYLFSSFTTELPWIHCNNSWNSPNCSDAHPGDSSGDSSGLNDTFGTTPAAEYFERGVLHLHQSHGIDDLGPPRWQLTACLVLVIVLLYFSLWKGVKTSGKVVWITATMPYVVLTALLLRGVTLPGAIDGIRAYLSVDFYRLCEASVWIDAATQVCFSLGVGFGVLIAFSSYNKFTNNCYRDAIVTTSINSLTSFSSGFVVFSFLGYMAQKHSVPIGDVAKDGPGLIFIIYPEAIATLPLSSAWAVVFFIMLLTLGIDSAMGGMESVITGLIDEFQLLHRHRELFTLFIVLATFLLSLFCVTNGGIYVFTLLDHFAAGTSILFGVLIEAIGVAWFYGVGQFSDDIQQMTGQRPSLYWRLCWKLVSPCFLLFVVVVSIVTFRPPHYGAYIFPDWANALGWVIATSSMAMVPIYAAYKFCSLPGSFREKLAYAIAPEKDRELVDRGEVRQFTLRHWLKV
dopamine D2 receptors, sequence (P14416 whole entry): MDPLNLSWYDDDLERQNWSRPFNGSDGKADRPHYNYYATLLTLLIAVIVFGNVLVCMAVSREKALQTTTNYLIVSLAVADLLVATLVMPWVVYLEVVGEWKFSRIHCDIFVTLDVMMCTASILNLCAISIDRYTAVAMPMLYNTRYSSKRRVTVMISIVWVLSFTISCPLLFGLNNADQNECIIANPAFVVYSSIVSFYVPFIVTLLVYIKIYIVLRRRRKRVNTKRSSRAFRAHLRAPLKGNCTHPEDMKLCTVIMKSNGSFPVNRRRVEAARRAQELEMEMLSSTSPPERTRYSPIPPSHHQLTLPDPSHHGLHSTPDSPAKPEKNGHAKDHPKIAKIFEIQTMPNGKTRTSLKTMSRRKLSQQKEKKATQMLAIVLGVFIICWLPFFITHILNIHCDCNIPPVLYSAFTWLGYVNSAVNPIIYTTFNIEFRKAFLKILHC
α4β2 nicotine receptor, sequence (P09483 31-630): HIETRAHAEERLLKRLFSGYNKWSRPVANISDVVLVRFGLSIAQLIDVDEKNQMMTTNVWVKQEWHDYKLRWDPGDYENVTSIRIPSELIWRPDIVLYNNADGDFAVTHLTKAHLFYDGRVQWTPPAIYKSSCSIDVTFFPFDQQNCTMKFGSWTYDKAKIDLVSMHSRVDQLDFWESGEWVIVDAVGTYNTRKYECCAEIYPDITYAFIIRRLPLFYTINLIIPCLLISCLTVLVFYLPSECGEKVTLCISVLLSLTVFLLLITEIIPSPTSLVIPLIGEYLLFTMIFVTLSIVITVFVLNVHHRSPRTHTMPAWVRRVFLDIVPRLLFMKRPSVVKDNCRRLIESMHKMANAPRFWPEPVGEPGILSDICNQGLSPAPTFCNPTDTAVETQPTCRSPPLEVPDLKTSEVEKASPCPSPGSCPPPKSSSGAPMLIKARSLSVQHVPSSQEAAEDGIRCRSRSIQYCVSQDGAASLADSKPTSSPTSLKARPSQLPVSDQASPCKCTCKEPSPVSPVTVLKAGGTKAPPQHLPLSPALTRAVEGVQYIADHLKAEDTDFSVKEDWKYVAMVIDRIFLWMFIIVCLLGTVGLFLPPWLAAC
α4β2 nicotine receptor, sequence (P12390 25-500): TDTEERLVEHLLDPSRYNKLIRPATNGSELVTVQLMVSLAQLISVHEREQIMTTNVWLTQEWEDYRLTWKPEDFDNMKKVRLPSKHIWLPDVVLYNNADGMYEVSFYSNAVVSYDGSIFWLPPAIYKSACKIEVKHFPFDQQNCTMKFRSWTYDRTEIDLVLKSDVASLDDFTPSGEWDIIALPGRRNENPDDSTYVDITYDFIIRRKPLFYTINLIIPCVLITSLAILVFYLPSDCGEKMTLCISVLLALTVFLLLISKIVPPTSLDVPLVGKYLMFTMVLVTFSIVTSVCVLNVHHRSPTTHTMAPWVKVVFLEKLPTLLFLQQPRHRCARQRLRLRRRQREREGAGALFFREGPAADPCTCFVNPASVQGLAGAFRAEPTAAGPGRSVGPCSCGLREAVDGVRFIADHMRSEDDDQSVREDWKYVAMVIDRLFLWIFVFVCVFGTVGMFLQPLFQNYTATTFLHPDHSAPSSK
α7 subtype, sequence (P36544 23-502): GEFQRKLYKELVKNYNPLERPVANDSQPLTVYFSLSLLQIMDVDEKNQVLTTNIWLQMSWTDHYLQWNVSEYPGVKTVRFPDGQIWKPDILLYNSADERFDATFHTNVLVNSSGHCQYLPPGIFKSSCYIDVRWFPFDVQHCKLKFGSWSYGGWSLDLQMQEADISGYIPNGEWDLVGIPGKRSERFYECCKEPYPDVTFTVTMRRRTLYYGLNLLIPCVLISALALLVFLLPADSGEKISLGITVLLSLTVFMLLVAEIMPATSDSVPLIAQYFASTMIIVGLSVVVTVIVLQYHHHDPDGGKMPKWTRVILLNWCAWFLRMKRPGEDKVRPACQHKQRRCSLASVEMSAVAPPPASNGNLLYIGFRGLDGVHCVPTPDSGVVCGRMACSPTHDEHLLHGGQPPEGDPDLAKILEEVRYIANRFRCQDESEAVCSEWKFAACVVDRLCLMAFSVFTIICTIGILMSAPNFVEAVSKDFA
neuronal [3H]-cytisine binding site, sequence (P43681 29-627): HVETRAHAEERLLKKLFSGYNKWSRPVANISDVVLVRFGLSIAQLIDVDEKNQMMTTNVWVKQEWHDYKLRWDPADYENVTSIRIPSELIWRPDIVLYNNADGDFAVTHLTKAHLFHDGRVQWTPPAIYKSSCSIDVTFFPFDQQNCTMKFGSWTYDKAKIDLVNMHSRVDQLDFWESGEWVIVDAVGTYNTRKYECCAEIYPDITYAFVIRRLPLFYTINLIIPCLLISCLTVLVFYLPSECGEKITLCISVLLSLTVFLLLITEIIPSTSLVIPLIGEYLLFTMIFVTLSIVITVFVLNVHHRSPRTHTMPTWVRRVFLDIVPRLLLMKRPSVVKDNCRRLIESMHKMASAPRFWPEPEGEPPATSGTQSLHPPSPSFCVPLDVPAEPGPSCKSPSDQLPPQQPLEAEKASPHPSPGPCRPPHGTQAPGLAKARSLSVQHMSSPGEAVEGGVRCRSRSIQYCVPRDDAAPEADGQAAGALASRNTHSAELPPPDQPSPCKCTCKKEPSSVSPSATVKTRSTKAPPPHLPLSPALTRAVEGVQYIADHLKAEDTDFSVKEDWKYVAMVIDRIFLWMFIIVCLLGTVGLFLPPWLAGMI
neuronal [3H]-cytisine binding site, sequence (P17787 26-502): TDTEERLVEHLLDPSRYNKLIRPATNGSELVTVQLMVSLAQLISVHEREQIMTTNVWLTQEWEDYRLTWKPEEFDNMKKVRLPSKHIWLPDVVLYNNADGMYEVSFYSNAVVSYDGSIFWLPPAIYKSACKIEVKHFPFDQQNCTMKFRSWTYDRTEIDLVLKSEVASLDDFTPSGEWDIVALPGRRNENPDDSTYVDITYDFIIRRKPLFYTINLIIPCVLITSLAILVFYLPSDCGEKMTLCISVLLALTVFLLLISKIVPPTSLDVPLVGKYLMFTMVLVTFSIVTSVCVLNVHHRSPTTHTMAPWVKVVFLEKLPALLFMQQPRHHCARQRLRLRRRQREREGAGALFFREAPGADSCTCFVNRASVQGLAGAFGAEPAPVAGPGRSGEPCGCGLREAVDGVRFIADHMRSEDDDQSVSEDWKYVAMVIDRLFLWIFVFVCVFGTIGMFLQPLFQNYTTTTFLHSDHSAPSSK
α4β2 nicotinic acetylcholine receptor subtype, sequence (P09483 31-630): as the sequence (P09483 31-630) above
α4β2 nicotinic acetylcholine receptor subtype, sequence (P12390 25-500): as the sequence (P12390 25-500) above

Ki (α4β2 nicotine receptor; [7]): 7.91 µM
Compound: CN1CCCCC1CC1=Cc2ccccc2C1 (racemic) [Compound 13, 1-Methyl-2-(2-indenyl)methylpiperidine hydrochloride]

Ki (α4β2 nicotine receptor; [7]): 8.95 µM
Compound: COc1ccc2c(c1)CC(CC1CCCCN1C)=C2 (racemic) [Compound 14, 1-Methyl-2-(6-methoxyinden-2-yl)methylpiperidine hydrochloride]

Ki (α4β2 nicotine receptor; [7]): > 10 µM
Compound: CN1CCCCC1CC1=Cc2ccc(O)cc2C1 (racemic) [Compound 15, 1-Methyl-2-(6-hydroxyinden-2-yl)methylpiperidine hydrochloride]

Compound: CN1CCCCC1C1CCc2ccccc2O1 (single isomer, unassigned) (as salt: salt) [Compound 1, erythro-2-(1-Methylpiperidin-2-yl)chroman]
melting point: 164 to 166 °C

Compound: CN1CCCCC1C1CCc2ccccc2O1 (single isomer, unassigned) [Compound 1, erythro-2-(1-Methylpiperidin-2-yl)chroman]
Ki (dopamine D2 receptors): > 10 µM
Ki (dopamine transporter): > 10 µM
Ki (serotonin transporter): > 10 µM
peak response of 86Rb+ release (in words) [1]: could match the peak response of S-(−)-nicotine
potency to stimulate the release of 86Rb+ (in words) [1]: lower potency
stimulation of [3H]dopamine release (in words) (striatal synaptosomes): failed to stimulate the release

Compound: CN1CCCCC1C1CCc2ccc(O)cc2O1 (single isomer, unassigned) [Compound 8, threo-7-Hydroxy-2-(1-methylpiperidin-2-yl)chroman]
Ki (dopamine D2 receptors): > 10 µM
Ki (dopamine transporter): > 10 µM
Ki (serotonin transporter): > 10 µM

Compound: CN1CCCC1C1CCc2ccc(O)cc2O1 (single isomer, unassigned) [Compound 11, erythro-7-Hydroxy-2-(1-methylpyrrolidin-2-yl)chroman]
stimulation of [3H]dopamine release (in words) (striatal synaptosomes; FIG. 10, compound 1 at doses of up to 10 μM): stimulates the release
[3H]Dopamine release (striatal synaptosomes; Table 2 summary in words): High intrinsic activity
[3H]ACh release (hippocampal synaptosomes; Table 2 summary in words): No intrinsic activity
stimulation of [3H]ACh release (in words) (hippocampal synaptosomes; cortical synaptosomes as worded, FIG. 11): little intrinsic activity
exploration times versus saline-treated controls (in words) ([2]; exploration phase, 1 μmol/kg/day): not significantly different
time spent exploring the new object ([2]; recognition phase four hours after exploration, after 7 days s.c. osmotic mini pump, compound 11 1 μmol/kg/day, ARICEPT 1 mg/kg/day): 80.5±5 % (SEM)

Compound: Cc1ncccc1OC[C@@H]1CCCN1 [ABT-089 (S)]
less potent than ABT-594 as an inhibitor of [3H]-nicotine binding [3]: about 300 fold

Compound: Cc1cc([C@@H]2CCCN2C)on1 [ABT-418]
Ki [4]: 0.0045 µM

Compound: COc1cc2c(cc1OC)C(=O)C(CC1CCN(Cc3ccccc3)CC1)C2 (centres unmarked) [ARICEPT, reference compound]
time spent exploring the new object ([2]; rat, in vivo): 60.1±5.4 % (SEM)

Compound: CN1CCCCC1C1CCc2ccc(O)cc2O1 (stereo not drawn) [Compound 3, erythro-7-Hydroxy-2-(1-methylpiperidin-2-yl)chroman]
Ki (dopamine D2 receptors): > 10 µM
Ki (dopamine transporter): > 10 µM
Ki (serotonin transporter): > 10 µM
potency to stimulate the release of 86Rb+ (in words) ([1]; compound 3 at 1, 5, 10 and 100 μM, compound 1 at 10 and 100 μM, versus S-(−)-nicotine, FIG. 9): comparable potency
concentration at which peak effects on [3H]dopamine release are obtained (striatal synaptosomes): ~10 µM
effect on K+-evoked release of [3H]dopamine (in words) (striatal synaptosomes): appeared to suppress
stimulation of [3H]dopamine release (in words) (striatal synaptosomes): dose-dependent stimulation
stimulation of [3H]ACh release (in words) (hippocampal synaptosomes): can stimulate the release
inhibition of tactile sensitivity (in words) (nerve-injured mice; intrathecal 30, 60 and 100 pmol): dose-dependent inhibition
inhibition of tactile sensitivity (nerve-injured mice; intrathecal, highest dose tested 100 pmol, FIG. 13): 60%
time of death post-injection (Male Wistar rats; male, Wistar, ip): ≤ 4 min
lethal effects antagonized by mecamylamine pretreatment (Male Wistar rats): three of the four animals
observed effect after administration (Male Wistar rats; ip): severe convulsions

Compound: CN1CCCCC1C1CCc2ccc(O)cc2O1 (stereo not drawn) [Compound 4, erythro-7-Hydroxy-2-(1-methylpiperidin-2-yl)chroman]
86Rb+ efflux [1]: High intrinsic activity
[3H]Dopamine release (striatal synaptosomes): Low to moderate activity
[3H]ACh release (hippocampal synaptosomes): High intrinsic activity

Compound: CN1CCCCC1C1CCc2c(O)cccc2O1 (stereo not drawn) [Compound 5, erythro-5-Hydroxy-2-(1-methylpiperidin-2-yl)chroman]
Ki (dopamine D2 receptors): > 10 µM
Ki (dopamine transporter): > 10 µM
Ki (serotonin transporter): > 10 µM

Compound: O=c1cccc2n1C[C@@H]1CNC[C@H]2C1 [Cytisine, reference compound]
Ki (α4β2 nicotine receptor; Ki-[3H]Cytisine): 0.0009 µM
Ki (α4β2 nicotine receptor; read-out: Ki-[3H]Cytisine): 0.00278 µM

Compound: CNCC/C=C/c1cccnc1 [RJR-2403]
Ki (α7 subtype): 36 µM
receptor activation (in words) [5]: does not significantly activate
receptor activation (in words) [6]: does not significantly activate

Compound: CN1CCC[C@H]1c1cccnc1 [S-(−)-nicotine, reference compound]
stimulation of [3H]dopamine release (in words) (striatal synaptosomes): dose-dependent
